Blank lines part the entries; values can stand above or below the compound they belong to.
Key:
HCT-116/VM46 = test: Cytotoxicity against human vinblastine-resistant HCT116/VM46 cells assessed as growth inhibition after 72 hrs by phosphatase assay; assay type: functional, cell-based; conditions: HCT-116/VM46, 72 h
L1210 = test: Cytotoxicity against mouse L1210 cells assessed as growth inhibition after 72 hrs by phosphatase assay; assay type: functional, cell-based; conditions: L1210, 72 h
HCT-116 = test: Cytotoxicity against human HCT116 cells assessed as growth inhibition after 72 hrs by phosphatase assay; assay type: functional, cell-based; conditions: HCT-116, 72 h
Tubulin (Sus scrofa) = Tubulin (Sus scrofa) (UniProt P02554+P02550); test: Displacement of [3H]Vinblastine from pig tubulin at 7.2 x 10^-5 M after 60 mins; assay type: protein assay
Tubulin (Sus scrofa), sequence (P02550 whole entry, looked up): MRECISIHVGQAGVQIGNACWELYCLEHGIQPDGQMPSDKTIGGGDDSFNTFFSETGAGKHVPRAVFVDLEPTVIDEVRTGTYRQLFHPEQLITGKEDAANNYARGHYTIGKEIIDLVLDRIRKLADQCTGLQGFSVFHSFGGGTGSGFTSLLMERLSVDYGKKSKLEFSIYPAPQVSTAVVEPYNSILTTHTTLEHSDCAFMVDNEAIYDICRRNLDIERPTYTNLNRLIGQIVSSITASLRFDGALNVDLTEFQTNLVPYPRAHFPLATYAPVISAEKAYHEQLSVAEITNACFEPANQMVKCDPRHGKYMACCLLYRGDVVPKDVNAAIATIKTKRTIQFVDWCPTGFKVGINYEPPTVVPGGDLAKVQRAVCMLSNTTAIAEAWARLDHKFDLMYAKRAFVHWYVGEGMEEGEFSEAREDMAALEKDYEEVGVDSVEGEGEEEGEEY
Tubulin (Sus scrofa), sequence (P02554 whole entry, looked up): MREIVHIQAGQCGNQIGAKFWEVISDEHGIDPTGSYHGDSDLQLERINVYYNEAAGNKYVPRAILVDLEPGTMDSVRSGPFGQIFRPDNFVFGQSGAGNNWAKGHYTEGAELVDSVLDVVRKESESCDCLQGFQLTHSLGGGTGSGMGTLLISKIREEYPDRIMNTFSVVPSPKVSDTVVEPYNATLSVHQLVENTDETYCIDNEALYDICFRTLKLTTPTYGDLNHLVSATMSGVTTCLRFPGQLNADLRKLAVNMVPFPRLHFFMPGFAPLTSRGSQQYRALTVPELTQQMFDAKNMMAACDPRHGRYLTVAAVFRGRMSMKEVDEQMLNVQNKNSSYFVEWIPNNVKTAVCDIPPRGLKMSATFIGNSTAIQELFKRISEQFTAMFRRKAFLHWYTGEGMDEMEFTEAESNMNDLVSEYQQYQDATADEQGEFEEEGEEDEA

Compound: CC[C@]1(O)C[C@H]2CN(CCc3c([nH]c4ccccc34)[C@@](C(=O)OC)(c3cc4c(cc3OC)N(C)[C@H]3[C@@](O)(C(=O)OC)[C@@H](OC(C)=O)[C@]5(CC)CCN6CCC[C@]43[C@@H]65)C2)C1
IC50 (HCT-116/VM46): 7600 nM | IC50 (L1210): 600 nM | IC50 (HCT-116): 680 nM

Compound: CCC1=C[C@@H]2CN(C1)Cc1c([nH]c3ccccc13)[C@@](C(=O)OC)(c1cc3c(cc1OC)N(C)[C@H]1[C@@](O)(C(=O)OC)[C@H](OC(C)=O)[C@]4(CC)C=CCN5CC[C@]31[C@@H]54)C2 [VINORELBINE]
IC50 (HCT-116/VM46): 600 nM | IC50 (L1210): 65 nM | IC50 (HCT-116): 75 nM

Compound: CC[C@]1(O)C[C@H]2CN(CCc3c([nH]c4ccccc34)[C@@](C(=O)OC)(c3cc4c(cc3OC)N(C)[C@@H]3[C@]45CCCN4CCC[C@@](CC)(C[C@]3(O)C(=O)OC)[C@@H]45)C2)C1
IC50 (HCT-116/VM46): 900 nM | IC50 (L1210): 55 nM | IC50 (HCT-116): 80 nM

Compound: CC[C@]1(O)C[C@H]2CN(CCc3c([nH]c4ccccc34)[C@@](C(=O)OC)(c3cc4c(cc3OC)N(C)[C@@H]3[C@]45CCN4CCC[C@@](CC)(C[C@]3(O)C(=O)OC)[C@H]45)C2)C1
IC50 (HCT-116/VM46): 4000 nM | IC50 (L1210): 660 nM | IC50 (HCT-116): 670 nM

inhibition (Tubulin (Sus scrofa)): 77.4%
Compound: CC[C@]1(O)C[C@H]2CN(CCc3c([nH]c4ccccc34)[C@@](C(=O)OC)(c3cc4c(cc3OC)N(C)[C@H]3[C@@](O)(C(=O)OC)[C@H](OC(C)=O)[C@]5(CC)CCCN6CC[C@]43[C@@H]65)C2)C1
IC50 (HCT-116/VM46): 4500 nM | IC50 (L1210): 570 nM | IC50 (HCT-116): 370 nM

inhibition (Tubulin (Sus scrofa)): 68.5%
Compound: CC[C@]1(O)C[C@H]2CN(CCc3c([nH]c4ccccc34)[C@@](C(=O)OC)(c3cc4c(cc3OC)N(C)[C@@H]3[C@]45CCCN4CC=C[C@@](CC)(C[C@]3(O)C(=O)OC)[C@H]45)C2)C1
IC50 (HCT-116/VM46): 5700 nM | IC50 (L1210): 370 nM | IC50 (HCT-116): 430 nM

Compound: CC[C@]1(O)C[C@H]2CN(CCc3c([nH]c4ccccc34)[C@@](C(=O)OC)(c3cc4c(cc3OC)N(C)[C@@H]3[C@]45CCCN4CCC[C@@](CC)(C[C@]3(O)C(=O)OC)[C@H]45)C2)C1
IC50 (HCT-116/VM46): > 10000 nM | IC50 (L1210): 5700 nM | IC50 (HCT-116): 7400 nM

Compound: CCC1=C[C@H]2CN(CCc3c([nH]c4ccccc34)[C@@](C(=O)OC)(c3cc4c(cc3OC)N(C)[C@H]3[C@@](O)(C(=O)OC)[C@H](OC(C)=O)[C@]5(CC)CCCN6CC[C@]43[C@@H]65)C2)C1
IC50 (HCT-116/VM46): 3500 nM | IC50 (L1210): 740 nM | IC50 (HCT-116): 890 nM

Compound: CC[C@]1(O)C[C@H]2CN(CCc3c([nH]c4ccccc34)[C@@](C(=O)OC)(c3cc4c(cc3OC)N(C)[C@@H]3[C@]45CCN4CC=C[C@@](CC)(C[C@]3(O)C(=O)OC)[C@H]45)C2)C1
IC50 (HCT-116/VM46): 660 nM | IC50 (L1210): 60 nM | IC50 (HCT-116): 60 nM

Compound: CC[C@]1(O)C[C@H]2CN(CCc3c([nH]c4ccccc34)[C@@](C(=O)OC)(c3cc4c(cc3OC)N(C)[C@@H]3[C@]45CCCN4CC=C[C@@](CC)(C[C@]3(O)C(=O)OC)[C@@H]45)C2)C1
IC50 (HCT-116/VM46): 730 nM | IC50 (L1210): 65 nM | IC50 (HCT-116): 100 nM

Compound: CC[C@]1(O)C[C@H]2CN(CCc3c([nH]c4ccccc34)[C@@](C(=O)OC)(c3cc4c(cc3OC)N(C)[C@H]3[C@@](O)(C(=O)OC)[C@@H](OC(C)=O)[C@]5(CC)C=CCN6CC[C@]43[C@@H]65)C2)C1
IC50 (HCT-116/VM46): 8400 nM | IC50 (L1210): 75 nM | IC50 (HCT-116): 80 nM

inhibition (Tubulin (Sus scrofa)): 48.4%
Compound: CC[C@]1(O)C[C@H]2CN(CCc3c([nH]c4ccccc34)[C@@](C(=O)OC)(c3cc4c(cc3OC)N(C)[C@H]3[C@@](O)(C(=O)OC)[C@H](OC(C)=O)[C@]5(CC)CCN6CCC[C@]43[C@@H]65)C2)C1
IC50 (HCT-116/VM46): 450 nM | IC50 (L1210): 7.2 nM | IC50 (HCT-116): 6.5 nM

Compound: CCC1=C[C@H]2CN(CCc3c([nH]c4ccccc34)[C@@](C(=O)OC)(c3cc4c(cc3OC)N(C)[C@H]3[C@@](O)(C(=O)OC)[C@H](OC(C)=O)[C@]5(CC)CCN6CC[C@]43[C@@H]65)C2)C1
IC50 (HCT-116/VM46): 7000 nM | IC50 (L1210): 700 nM | IC50 (HCT-116): 630 nM

inhibition (Tubulin (Sus scrofa)): 50%
Compound: CC[C@]1(O)C[C@@H]2CN(CCc3c([nH]c4ccccc34)[C@@](C(=O)OC)(c3cc4c(cc3OC)N(C)[C@H]3[C@@](O)(C(=O)OC)[C@H](OC(C)=O)[C@]5(CC)C=CCN6CC[C@]43[C@@H]65)C2)C1

Compound: CC[C@]1(O)C[C@H]2CN(CCc3c([nH]c4ccccc34)[C@@](C(=O)OC)(c3cc4c(cc3OC)N(C)[C@H]3[C@@](O)(C(=O)OC)[C@H](OC(C)=O)[C@]5(CC)CCN6CC[C@]43[C@@H]65)C2)C1
IC50 (HCT-116/VM46): 7800 nM | IC50 (L1210): 560 nM | IC50 (HCT-116): 80 nM
